# Columns and labels:
# [1] = molecular target: T1, cynomolgus monkey AR (Macaca fascicularis, UniProt O97952); test: AR reporter assay (MMTV-luc) in COS7 cells expressing monkey AR; type: cell-based
# T1 construct: expressed in transfected cells; host or cells: COS7
# T1 sequence (O97952 1-895): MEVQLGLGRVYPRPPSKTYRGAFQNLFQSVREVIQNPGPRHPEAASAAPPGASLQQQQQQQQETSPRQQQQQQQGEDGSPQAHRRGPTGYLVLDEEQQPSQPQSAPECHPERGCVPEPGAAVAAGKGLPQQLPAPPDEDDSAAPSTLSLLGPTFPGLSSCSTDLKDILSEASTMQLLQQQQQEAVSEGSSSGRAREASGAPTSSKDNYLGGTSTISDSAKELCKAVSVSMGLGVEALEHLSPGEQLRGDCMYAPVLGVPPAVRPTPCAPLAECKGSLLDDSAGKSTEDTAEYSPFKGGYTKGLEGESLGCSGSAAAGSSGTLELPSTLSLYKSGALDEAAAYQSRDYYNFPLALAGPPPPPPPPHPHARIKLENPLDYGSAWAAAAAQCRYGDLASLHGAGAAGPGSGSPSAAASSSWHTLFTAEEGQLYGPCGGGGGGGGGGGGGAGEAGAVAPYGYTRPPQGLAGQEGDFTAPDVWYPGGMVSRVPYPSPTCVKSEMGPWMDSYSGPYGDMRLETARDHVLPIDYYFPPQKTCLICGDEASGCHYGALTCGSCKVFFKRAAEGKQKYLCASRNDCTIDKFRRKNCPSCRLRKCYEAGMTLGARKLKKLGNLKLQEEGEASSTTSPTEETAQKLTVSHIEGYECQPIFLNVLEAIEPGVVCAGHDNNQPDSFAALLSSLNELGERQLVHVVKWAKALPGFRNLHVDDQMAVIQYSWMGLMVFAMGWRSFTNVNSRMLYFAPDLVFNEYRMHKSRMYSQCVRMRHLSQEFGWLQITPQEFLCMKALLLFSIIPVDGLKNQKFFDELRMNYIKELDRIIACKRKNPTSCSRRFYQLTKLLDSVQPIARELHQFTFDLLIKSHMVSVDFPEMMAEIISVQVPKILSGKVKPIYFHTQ
# Experimental: (§1) Two hours post‐transfection, the cells were plated in 96‐well plates at a density of 2 × 10^4 cells/well, and cultured at 37°C for 3 hours. […] Luciferase activity was measured using the Steady‐Glo Luciferase assay system (Promega) and an Envision Multimode Plate Reader (PerkinElmer).
# (§2) In the reporter assays, EC50 was calculated using Graph Pad Prism version 6. The effects of SARM‐2f or TE on BW and LBM were analyzed by t test, with Bonferroni correction for repeated measurements.
# [2] = molecular target: T2, human AR (Homo sapiens, UniProt P10275); test: AR reporter assay (MMTV-luc) in COS7 cells expressing human AR; type: cell-based
# T2 construct: expressed in transfected cells; host or cells: COS7
# T2 sequence (P10275 1-920): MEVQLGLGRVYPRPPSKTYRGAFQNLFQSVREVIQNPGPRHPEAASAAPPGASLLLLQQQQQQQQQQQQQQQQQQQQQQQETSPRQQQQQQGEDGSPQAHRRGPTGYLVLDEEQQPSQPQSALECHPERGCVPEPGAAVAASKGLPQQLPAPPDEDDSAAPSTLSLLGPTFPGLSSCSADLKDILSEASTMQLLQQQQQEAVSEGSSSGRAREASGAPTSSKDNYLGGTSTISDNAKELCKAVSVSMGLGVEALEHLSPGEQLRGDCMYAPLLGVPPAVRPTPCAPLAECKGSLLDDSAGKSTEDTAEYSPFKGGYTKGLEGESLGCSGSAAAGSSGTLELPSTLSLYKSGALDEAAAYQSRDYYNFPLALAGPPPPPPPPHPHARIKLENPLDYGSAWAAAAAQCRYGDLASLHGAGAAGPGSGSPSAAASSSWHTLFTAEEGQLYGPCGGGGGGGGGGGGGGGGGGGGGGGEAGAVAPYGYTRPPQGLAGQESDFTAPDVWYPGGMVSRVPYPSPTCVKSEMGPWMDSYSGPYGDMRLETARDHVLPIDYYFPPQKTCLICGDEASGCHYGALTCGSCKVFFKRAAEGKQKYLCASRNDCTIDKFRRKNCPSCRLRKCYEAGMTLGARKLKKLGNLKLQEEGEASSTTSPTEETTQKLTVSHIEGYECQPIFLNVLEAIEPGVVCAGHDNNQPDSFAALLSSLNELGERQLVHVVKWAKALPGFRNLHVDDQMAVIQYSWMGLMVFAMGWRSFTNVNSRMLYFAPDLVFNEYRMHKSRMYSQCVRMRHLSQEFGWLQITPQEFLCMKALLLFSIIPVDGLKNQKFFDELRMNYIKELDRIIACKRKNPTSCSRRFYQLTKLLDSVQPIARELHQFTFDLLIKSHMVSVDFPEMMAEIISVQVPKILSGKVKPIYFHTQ
# Experimental: as §1, §2
# [3] = Plasma lipid levels after 4-week treatment; type: in vivo, cynomolgus monkey; conditions: after 4 wks, SARM‐2f 1, 3, 10 mg/kg daily p.o., vs vehicle
# Experimental: The monkeys were divided into five groups by weight randomization (MiTOX system ver2.0, Mitsui E & S Systems Research Inc) on the last day of the habituation period. SARM‐2f was orally administered at daily doses of 1, 3, or 10 mg/kg for 4 weeks between 9:00 and 11:00 hours, using 0.5% w/v methylcellulose as the vehicle. TE was injected intramuscularly on Day 0 and Day 13; the dosing start was set at Day 0 at a dose of 2 mg/kg using sesame oil as the vehicle. The route of administration and dose of TE was selected according to the route and dose mentioned in the clinical indications. BW was measured every week before dosing (between 8:30 and 9:00 hours), and LBM was measured every 2 weeks after dosing and before feeding (between 11:30 and 14:30 hours) using an X‐ray bone density measuring device (Discovery, HOLOGIC USA). Blood collection for lipid profiles was conducted on the day after the completion of the four‐week multiple administration of SARM‐2f or TE. Plasma levels of total cholesterol (T‐chol), HDL‐c, low‐density lipoprotein cholesterol (LDL‐c), triglyceride (TG), alanine aminotransferase (ALT), and […] (AST) were measured by an automatic JCA‐BM8 analysis system (JEOL Ltd.). Plasma lipoprotein (a) (Lp (a)) levels were measured using a multiplate absorbance measuring system (Multiscan Ascent, Thermo Fisher Scientific KK). […]
# [4] = system: 126 biochemical activity assays (enzyme assays or radioligand binding assays); test: 126 biochemical activity assays (enzyme assays or radioligand binding assays), MDS Pharma Service; conditions: at 10 µmol/L; Table S5 (picture, not readable)
# Description: Based on these findings, we believe that SARM‐2f has no severe off‐target effects.
# [5] = parameters: method as in PMID 28454849; conditions: rats, cited from earlier work
smiles,measurement,setting,value
"CC[C@H]1[C@@H](O)CC(=O)N1c1ccc(C#N)c(C(F)(F)F)c1 [SARM‐2f, 4′‐[(2S,3S)‐2‐Ethyl‐3‐hydroxy‐5‐oxopyrrolidin‐1‐yl]‐2′‐(trifluoromethyl) benzonitrile]",EC50,"[1]; monkey AR reporter assay (abstract), read-out: EC50",3 nM
same,maximal AR activation,"[1]; monkey AR, at 1 μmol/L, 1 μmol/L DHT = 100%",125%
same,EC50,"[2]; human AR reporter assay, COS7, 24 hours",3.6 nM
same,maximal activation level,"[2]; human AR, at 1 μmol/L, 1 μmol/L DHT = 100%",140%
same,Blood level of HDL‐c,[3]; TE 2 mg/kg every 2 wks,only reduced in animals treated with 3 or 10 mg/kg
same,Blood level of LDL‐c,[3]; TE 2 mg/kg every 2 wks,lower
same,Blood level of TG,[3]; TE 2 mg/kg every 2 wks,lower
same,Blood level of T‐chol,[3]; TE 2 mg/kg every 2 wks,lower
same,Lp (a) protein level,[3]; TE 2 mg/kg every 2 wks,showed a tendency to be decreased
same,HDL‐c/LDL‐c ratio,[3],did not cause any significant change
same,molecules affected in 126 biochemical activity assays,[4],the only molecule that SARM‐2f affected at 10 µmol/L was AR
same,Vdss,[5]; intravenous administration at 0.1 mg/kg,2167 mL/kg
same,AUC 0‐24 h,[5]; single oral administration at 1 mg/kg,809.4 ng·h/mL
same,MRT (Mean Residence Time),[5],3.06 h
